Laboratory results: patent US7476688B2, “Cyclic amidine derivatives” (EISAI R&D Management Co., Ltd., priority 2001, dated 2009)
Structures can show the parent of a compound that is named as a salt.

Experiments:
PAR1 thrombin receptor = molecular target: T1, PAR1 thrombin receptor (Homo sapiens, UniProt P25116); test: Receptor binding assay ([3H] high affinity TRAP, platelet membrane); conditions: displacement of 25 nM [3H] high affinity TRAP from platelet membrane, 37° C., 1 hour; read-out: RBA IC50
T1 construct: centrifuged at 40,000 g for 60 minutes to yield platelet membrane; from tissue; host or cells: platelet membrane from donor blood
T1 sequence (P25116 22-425): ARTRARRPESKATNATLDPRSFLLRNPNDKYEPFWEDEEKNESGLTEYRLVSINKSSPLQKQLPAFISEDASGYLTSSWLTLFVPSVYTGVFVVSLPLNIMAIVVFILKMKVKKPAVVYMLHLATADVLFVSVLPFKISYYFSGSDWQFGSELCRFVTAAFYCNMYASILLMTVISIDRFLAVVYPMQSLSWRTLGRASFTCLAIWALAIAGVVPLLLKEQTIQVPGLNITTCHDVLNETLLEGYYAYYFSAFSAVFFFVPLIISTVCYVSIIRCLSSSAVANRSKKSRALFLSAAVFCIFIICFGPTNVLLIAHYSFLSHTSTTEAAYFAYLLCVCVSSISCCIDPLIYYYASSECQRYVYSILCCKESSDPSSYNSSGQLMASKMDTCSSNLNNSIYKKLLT
Description: Blood was sampled from a healthy adult who had taken no drugs for one week, and 3.8% citric acid (a ratio of 1:9 with respect to the blood) was added as an anticoagulant. The mixture was then centrifuged at 100 g for 10 minutes at room temperature to yield platelet rich plasma (PRP). The platelet precipitate obtained, by centrifuging the PRP was homogenized with a Dounce homogenizer, and then centrifuged at 40,000 g for 60 minutes to yield platelet membrane. The platelet membrane was suspended in a solution prepared by adding DMSO (dimethyl sulfoxide) at 1% concentration to Buffer 1: a 50 mM Tris-HCl buffer containing 10 mM MgCl2 and 1 mM EGTA (ethylene glycol tetraacetic acid), and the suspension was stored at −80° C. Bovine albumin and DMSO were added to Buffer 1 at 0.1% and 20%, respectively, to make a preparation solution for the test compound. […] Next, 30 μl of liquid scintillator was added for measurement of the radioactivity of the plate using a Top Counter (Packard), the value of the radioactivity in the presence of the test compound minus non-specific binding portion was divided by the specific binding value (the value of the binding in the absence of the compound minus the non-specific binding portion) to determine the binding ratio, from which the IC50 value was calculated. […]

[1] = test system: platelet rich plasma (PRP), thrombin-induced platelet aggregation; test: Inhibitory effects on platelet aggregation using platelet rich plasma (thrombin-induced); assay type: cell-based; conditions: Homo sapiens, 0.1 h, thrombin 0.5-1.5 units/ml, area under aggregation curve over 6 minutes, read-out: Thr IC50
Description: Blood was sampled from a healthy adult who had taken no drugs for one week, and 3.8% citric acid (a ratio of 1:9 with respect to the blood) was added as an anticoagulant. The mixture was then centrifuged at 100 g for 10 minutes at room temperature to yield platelet rich plasma (PRP). The PRP-removed blood was further centrifuged at 1000 g for 10 minutes to yield platelet poor plasma (PPP). The number of platelet was counted using a multi-parameter automatic hemocyte counter (K4500, Sysmex), and the PRP was diluted to approximately 300,000/μl with the PPP. The platelet aggregation activity was determined in the following manner using an Aggregometer (MC Medical). GPRP-NH2 (final concentration 1 mM, 25 μl) was added as a fibrin polymerization inhibitor to the PRP (175 μl), after which Ca-free Tyrode solution (control) or the test compound suspension (25 μl) at different concentrations was added, incubation was performed at 37° C. for 3 minutes and then 25 μl of thrombin at the minimum concentration required to produce maximum aggregation (final concentration: optimum concentration among 0.5-1.5 units/ml) was added, for initiation of platelet aggregation. […] After addition of thrombin, the aggregation reaction was examined for 6 minutes and the areas under the aggregation curves were compared to determine the inhibition ratio, from which the IC50 value was calculated.

[2] = test system: Vascular smooth muscle cells (rSMC); test: Rat smooth muscle cell proliferation assay (thrombin-stimulated, MTT); assay type: cell-based; conditions: 48 h, thrombin 0.1 unit/ml, 2 days, MTT OD 590 nm, read-out: Rat SMC IC50
Description: Vascular smooth muscle cells (rSMC) were isolated from male SD rat aorta by the explant method. DMEM medium (Sigma) containing 10% fetal bovine serum (GibcoBRL), streptomycin and penicillin was used as the proliferation medium, and subculture was carried out at 37° C. in the presence of 5% CO2. Culture was initiated after adding 100 μl of rSMC suspension in proliferation medium at a concentration of 1×10^4 cells/ml, to a 96-well plate. After 3 days, cells were rinsed twice with 100 μl of DMEM medium, the medium was exchanged with 100 μl of DMEM medium containing 0.1% albumin (starvation medium), and serum starvation was initiated. […]
Upon adding 20 μl of MTT (3-[4,5-dimethylthiazol-2-yl]-2,5-diphenyltetrazolium bromide) dissolved in DPBS to 7.5 mg/ml, incubation was continued for 4 hours. […] As an index of cell proliferation, the OD 590 nm was measured using a plate reader (EL340, BIO-TEK Instruments Inc.), and the control OD value (OD value in the absence of the test compound) minus the OD value in the presence of the test compound was divided by the control OD value minus the blank OD value (OD value without thrombin stimulation) to determine the inhibition ratio, from which the value was calculated.

Question: For `CCCC1CN(CC(=O)c2cc(N(C)S(C)(=O)=O)c(O)c(C(C)(C)C)c2)C(=N)[C@@H]1c1ccccc1` (stereo in doubt) [Example 3, N-{3-tert-Butyl-2-hydroxy-5-[2-((3S,4S)-2-imino-3-phenyl-4-propyl-pyrrolidin-1-yl)-acetyl]-phenyl}-N-methyl-methanesulfonamide hydrobromide], which IC50 (PAR1 thrombin receptor) is on record?
Answer: The IC50 was 0.66 µM.

Question: What about the IC50 [1] of the same molecule?
Answer: The IC50 was 2.3 µM.

Question: And the IC50 [2]?
Answer: The IC50 was 2.5 µM.
